Measured values published in patent US10357537B2, “Cyclotides as immunosuppressive agents” (priority 2011, dated 2019).
Where two headings read alike, the source gives them in different places. Bridge positions count the residues as written; N and C are the ends. Peptide text beside a SMILES is read from it.

Key:
[1] = system: activated human primary PBMC; assay: Anti-proliferative CFSE cell division assay on anti-CD3/CD28-activated PBMC; settings: for IC50: read-out: IC50 (μM) ± STDEV, inhibition of PBMC proliferation, PBMCs, anti-CD3/28 mAbs, 72 h, n.a. = not active; for cytotoxicity in PBMC proliferation assay: at 14 μM
Protocol: Human peripheral blood mononuclear cells (PBMC) were isolated from the blood of healthy adult donors obtained from the Blood Transfusion Centre (University Medical Center, Freiburg, Germany). Venous blood was centrifuged on a LymphoPrep™ gradient (density: 1.077 g/cm^3, 20 min, 500×g, 20° C.; Progen, Heidelberg, Germany). Afterwards cells were washed twice with medium and cell viability and concentration was determined using the trypan blue exclusion test. PBMC were cultured in RPMI 1640 medium supplemented with 10% heat-inactivated fetal calf serum (PAA, Coelbe, Germany), 2 mM L-glutamine, 100 U/mL penicillin and […] (all from Invitrogen, Karlsruhe, Germany). The cells were cultured at 37° C. in a humidified incubator with a 5% CO2/95% air atmosphere. All experiments conducted on human material were approved by the Ethics committee of the University of Freiburg.
(§1) After cultivation, the cells were assessed in bioassays as described in the text.
For cell proliferation and cell division tracking analysis PBMC were harvested and washed twice in cold PBS and resuspended in PBS at a concentration of 5×10^6 cells/mL. Cells were incubated for 10 min at 37° C. with carboxyfluorescein diacetate succinimidyl ester (CFSE; 5 μM: Sigma-Aldrich, Taufkirchen, Germany). The staining reaction was stopped by washing twice with complete medium. Afterwards, the cell division progress was analysed using flow cytometric analysis.
(§2) The anti-proliferative effect of cyclotide mutants/variants was tested according to Example 5. […] Afterwards the cell proliferation was assessed by analysing cell division using flow cytometric-based histogram analysis.

[2] = system: CD3 purified T-lymphocytes; assay: Anti-proliferative CFSE assay on magnetic-purified CD3+ lymphocytes; settings: for IC50: read-out: IC50 (μM) ± STDEV, inhibition of CD3 purified T-lymphocyte proliferation, CD3 purified lymphocytes, anti-CD3/28 mAbs, 72 h
Protocol: as §2

[3] = system: activated human primary PBMC
Protocol: as §1
The levels of apoptosis were determined using the annexin V-FITC apoptosis detection kit (eBioscience, Frankfurt, Germany) according to the manufacturer's instructions. After annexin V staining, propidium iodide solution (PI; eBioscience) was added and the cells were incubated in the dark, followed by a flow cytometric analysis to determine the amount of apoptosis and necrosis. CPT (30 μg/mL) and Triton-X 100 (0.5%) was used as positive controls for apoptosis and necrosis, respectively.
Cellular apoptotic and necrotic hallmarks were measured by using inter-nucleosomal DNA fragmentation (subG1^+ cells) assay and phosphatidylserine surface analysis through a single and combinatory annexin V and propidium iodide staining. This double staining process allowed the discrimination between viable (annexin^−/PI^−), apoptotic (annexin^+/PI^− and annexin^+/PI^+) or necrotic (annexin^−/PI^+) cells.

CC[C@@H](C)[C@H]1NC(=O)[C@H]2CCCN2C(=O)[C@@H](Cc2c[nH]c3ccccc23)NC(=O)[C@@H]([C@H](C)O)NC(=O)[C@H]2CSSC[C@H]3NC(=O)[C@@H]([C@H](C)O)NC(=O)[C@@H](CCC(=O)O)NC(=O)CNC(=O)[C@H]4CSSC[C@@H](NC(=O)CNC(=O)[C@H]5CCCN5C(=O)[C@@H]([C@H](C)O)NC(=O)[C@@H](CC(N)=O)NC(=O)[C@@H](CSSC[C@@H](NC1=O)C(=O)N[C@H]([C@H](C)O)C(=O)N[C@H](CCCNC(=N)N)C(=O)N[C@H](CC(=O)O)C(=O)NCC(=O)N[C@H](CC(C)C)C(=O)N1CCC[C@@H]1C(=O)N[C@H](C(C)C)C(=O)N4)NC(=O)[C@@H]([C@H](C)O)NC(=O)CNC(=O)CNC(=O)[C@@H](Cc1ccccc1)NC3=O)C(=O)N[C@H](CO)C(=O)N2 [all-D kalata B2, D-kalataB2] gave an IC50 ([1]; cyclotides 1.8-14 μM) of 2.3 ± 0.8 µM and an IC50 [2] of 2.9 ± 0.4 µM.

For CC(C)C[C@@H]1NC(=O)[C@H](CCCCN)NC(=O)[C@H](CC(N)=O)NC(=O)[C@H](CCCNC(=N)N)NC(=O)[C@H]([C@@H](C)O)NC(=O)[C@@H]2CSSC[C@@H]3NC(=O)[C@H]([C@@H](C)O)NC(=O)CNC(=O)CNC(=O)[C@H](C(C)C)NC(=O)[C@@H]4CSSC[C@H](NC(=O)[C@H](CCCCN)NC(=O)[C@H](CSSC[C@H](NC(=O)[C@H](C(C)C)NC(=O)[C@@H]5CCCN5C1=O)C(=O)NCC(=O)N[C@@H](CCC(=O)O)C(=O)N[C@@H]([C@@H](C)O)C(=O)N4)NC(=O)CNC(=O)[C@@H]1CCCN1C(=O)[C@H]([C@@H](C)O)NC(=O)[C@H](CC(N)=O)NC3=O)C(=O)N[C@@H](CO)C(=O)N[C@@H](Cc1c[nH]c3ccccc13)C(=O)N1CCC[C@H]1C(=O)N[C@@H](C(C)C)C(=O)N2 [T20K, G1K, Kalata T20K, G1K] (cyclo(CGETCVGGTCNTPGCKCSWPVCTRNKLPV); disulfide 1-15, 5-17, 10-22), the “cytotoxicity in PBMC proliferation assay” value [1] was “(cytotoxic)”, the “cytotoxicity in PBMC proliferation assay” value ([1]; listed as T20K+G1K) was “cytotoxic” and the “cytotoxicity in CD3 purified lymphocyte proliferation assay” value ([2]; at 14 μM) was “(cytotoxic)”. It also gave an IC50 [2] of 1.1 ± 0.7 µM.

For CC[C@H](C)[C@@H]1NC(=O)[C@@H]2CCCN2C(=O)[C@H](Cc2c[nH]c3ccccc23)NC(=O)[C@H]([C@@H](C)O)NC(=O)[C@@H]2CSSC[C@@H]3NC(=O)[C@H]([C@@H](C)O)NC(=O)[C@H](CCC(=O)O)NC(=O)CNC(=O)[C@@H]4CSSC[C@H](NC(=O)CNC(=O)[C@@H]5CCCN5C(=O)[C@H]([C@@H](C)O)NC(=O)[C@H](CC(N)=O)NC(=O)[C@H](CSSC[C@H](NC1=O)C(=O)N[C@@H]([C@@H](C)O)C(=O)N[C@@H](CCCNC(=N)N)C(=O)N[C@@H](CC(=O)O)C(=O)NCC(=O)N[C@@H](CC(C)C)C(=O)N1CCC[C@H]1C(=O)N[C@@H](C(C)C)C(=O)N4)NC(=O)[C@H]([C@@H](C)O)NC(=O)CNC(=O)CNC(=O)[C@H](Cc1ccccc1)NC3=O)C(=O)N[C@@H](CO)C(=O)N2 [Kalata B2] (cyclo(CFGGTCNTPGCSCTWPICTRDGLPVCGET); disulfide 1-13, 6-18, 11-26), the IC50 ([1]; cyclotides 1.8-14 μM) was 0.2 ± 0.1 µM and the IC50 [2] was 0.6 ± 0.02 µM.

For CC[C@H](C)[C@H](NC(=O)CN)C(=O)NCC(=O)N[C@@H](C)C(=O)N[C@H](C(=O)N[C@@H](CC(C)C)C(=O)N[C@@H](CCCCN)C(=O)N[C@H](C(=O)N[C@@H](CC(C)C)C(=O)N[C@H](C(=O)N[C@H](C(=O)NCC(=O)N[C@@H](CC(C)C)C(=O)N1CCC[C@H]1C(=O)N[C@@H](C)C(=O)N[C@@H](CC(C)C)C(=O)N[C@H](C(=O)N[C@@H](CO)C(=O)N[C@@H](Cc1c[nH]c2ccccc12)C(=O)N[C@H](C(=O)N[C@@H](CCCCN)C(=O)N[C@@H](CCCNC(=N)N)C(=O)N[C@@H](CCCCN)C(=O)N[C@@H](CCCNC(=N)N)C(=O)N[C@@H](CCC(N)=O)C(=O)N[C@@H](CCC(N)=O)C(N)=O)[C@@H](C)CC)[C@@H](C)CC)[C@@H](C)O)[C@@H](C)O)C(C)C)C(C)C [melittin], the “cell division / proliferation of activated PBMC (in words)” value ([1]; CFSE, flow cytometry, extract 50-100 μg/mL, cyclotides 1.8-14 μM, melittin 0.05-1.6 μM) was “decrease of proliferating PBMC at 1.6 μM”, the induction of necrosis ([3]; kalata B1 14 μM vs untreated control, Triton-X 100, melittin high concentrations) was “slight effect on necrosis induction at high concentrations” and the induction of apoptosis ([3]; kalata B1 1.8-14 μM, CPT 30 μg/mL, melittin up to 1.6 μM) was “mainly due to the induction of apoptosis”.

In the case of Triton-X 100, the induction of necrosis [3] is reported as “significantly increased the fractions of these cells”.
